Source: patent US9409908B2 (priority 2012, dated 2016)
Where a name gives a salt, the structure may show the parent alone.

Legend:
[1] = biological target: purified human plasma kallikrein (Homo sapiens (Human), UniProt P03952); experiment: biochemical; type: biochemical; conditions: Plasma Kallikrein Ki
[2] = biological target: purified human Factor XIa (Homo sapiens (Human), UniProt P03951); experiment: biochemical; type: biochemical; conditions: read-out: Factor XIa Ki
Sequence of purified human Factor XIa (P03951 whole entry, looked up): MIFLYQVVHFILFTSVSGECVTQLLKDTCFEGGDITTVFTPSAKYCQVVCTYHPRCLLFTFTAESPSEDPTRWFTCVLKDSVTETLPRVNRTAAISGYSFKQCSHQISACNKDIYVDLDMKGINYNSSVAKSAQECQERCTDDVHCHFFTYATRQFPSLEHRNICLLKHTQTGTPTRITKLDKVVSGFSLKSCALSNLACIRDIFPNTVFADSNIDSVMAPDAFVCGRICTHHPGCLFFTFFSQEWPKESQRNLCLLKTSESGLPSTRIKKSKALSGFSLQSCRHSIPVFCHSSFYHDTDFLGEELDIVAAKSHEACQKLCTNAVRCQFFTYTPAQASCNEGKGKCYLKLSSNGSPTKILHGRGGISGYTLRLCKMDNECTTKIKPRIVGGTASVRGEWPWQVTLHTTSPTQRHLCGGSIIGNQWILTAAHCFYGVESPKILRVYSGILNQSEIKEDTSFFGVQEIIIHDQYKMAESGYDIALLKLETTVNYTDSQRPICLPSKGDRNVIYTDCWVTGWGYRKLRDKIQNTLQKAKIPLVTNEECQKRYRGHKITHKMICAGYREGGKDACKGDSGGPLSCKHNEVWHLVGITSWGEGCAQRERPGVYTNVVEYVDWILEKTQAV
Sequence of purified human Factor XIa (P03951 whole entry partner, looked up): as the sequence (P03951 whole entry, looked up) above

Sequence of purified human plasma kallikrein (P03952 whole entry, looked up): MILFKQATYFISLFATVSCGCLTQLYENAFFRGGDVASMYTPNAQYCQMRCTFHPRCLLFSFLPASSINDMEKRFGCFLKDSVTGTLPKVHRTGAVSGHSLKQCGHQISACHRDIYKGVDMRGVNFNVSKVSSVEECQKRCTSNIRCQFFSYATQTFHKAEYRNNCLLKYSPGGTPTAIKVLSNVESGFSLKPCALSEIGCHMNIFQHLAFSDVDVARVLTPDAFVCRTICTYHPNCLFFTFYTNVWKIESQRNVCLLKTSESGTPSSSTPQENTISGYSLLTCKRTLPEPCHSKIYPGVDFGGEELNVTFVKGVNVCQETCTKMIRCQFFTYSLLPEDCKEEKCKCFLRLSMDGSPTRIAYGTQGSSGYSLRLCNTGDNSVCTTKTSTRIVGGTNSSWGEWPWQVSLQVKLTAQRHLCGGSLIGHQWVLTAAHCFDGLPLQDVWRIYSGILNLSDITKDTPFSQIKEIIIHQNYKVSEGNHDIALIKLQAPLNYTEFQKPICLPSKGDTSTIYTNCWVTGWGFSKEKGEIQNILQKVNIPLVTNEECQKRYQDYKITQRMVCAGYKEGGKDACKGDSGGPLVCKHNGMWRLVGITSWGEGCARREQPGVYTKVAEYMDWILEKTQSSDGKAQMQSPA
Sequence of purified human plasma kallikrein (P03952 whole entry partner, looked up): as the sequence (P03952 whole entry, looked up) above

SMILES	Ki [1]	Ki [2]
COC(=O)Nc1ccc2c(c1)NC(=O)[C@H](C)CCC[C@H](N1CC(C)C(c3c(F)ccc(Cl)c3F)=CC1=O)c1cc-2ccn1 (single isomer, unassigned; isomer 2) [Example 178]	5.68 nM	
COC(=O)Nc1ccc2c(c1)NC(=O)[C@H](C)CCC[C@H](N1CCC(c3c(C#N)ccc(C)c3F)=CC1=O)c1cc-2ccn1 [Example 104, Methyl N-[(10R,14S)-14-[4-(6-cyano-2-fluoro-3-methylphenyl)-6-oxo-1,2,3,6-tetrahydropyridin-1-yl]-10-methyl-9-oxo-8,16-diazatricyclo[13.3.1.0^2,7]nonadeca-1(18),2,4,6,15(19),16-hexaen-5-yl]carbamate, TFA salt]		0.09 nM
C[C@@H]1CCC[C@H](N2CCC(c3c(F)ccc(Cl)c3F)=CC2=O)c2cc(ccn2)-c2ccc(NC3O[C@H](CO)[C@@H](O)[C@H](O)[C@@H]3N)cc2NC1=O (stereo partly drawn) [Example 127, (10R,14S)-5-{[(3S,4R,5S,6R)-3-amino-4,5-dihydroxy-6-(hydroxymethyl)oxan-2-yl]amino)-14-[4-(3-chloro-2,6-difluorophenyl)-6-oxo-1,2,3,6-tetrahydropyridin-1-yl]-10-methyl-8,16-diazatricyclo[13.3.1.0^2,7]nonadeca-1(19),2,4,6,15,17-hexaen-9-one]		3.61 nM
C[C@@H]1CCC[C@H](N2CCC(c3c(F)ccc(Cl)c3F)=CC2=O)c2cc(ccn2)-c2cc(-c3nn[nH]n3)ccc2NC1=O [Example 140, (10R,14S)-14-[4-(3-chloro-2,6-difluorophenyl)-6-oxo-1,2,3,6-tetrahydropyridin-1-yl]-10-methyl-4-(2H-1,2,3,4-tetrazol-5-yl)-8,16-diazatricyclo[13.3.1.0^2,7]nonadeca-1(19),2(7),3,5,15,17-hexaen-9-one]		1.34 nM
C[C@@H]1CCC[C@H](N2CCC(c3c(F)ccc(Cl)c3F)=CC2=O)c2cc(ccn2)-c2cc(F)ccc2NC1=O [Example 145, (10R,14S)-14-[4-(3-chloro-2,6-difluorophenyl)-6-oxo-1,2,3,6-tetrahydropyridin-1-yl]-4-fluoro-10-methyl-8,16-diazatricyclo[13.3.1.0^2,7]nonadeca-1(19),2(7),3,5,15,17-hexaen-9-one]		18.6 nM
C[C@@H]1CCC[C@H](N2CCC(c3c(F)ccc(Cl)c3F)=CC2=O)c2cc(ccn2)-c2cc(C(=O)O)ccc2NC1=O [Example 146, (10R,14S)-14-[4-(3-chloro-2,6-difluorophenyl)-6-oxo-1,2,3,6-tetrahydropyridin-1-yl]-10-methyl-9-oxo-8,16-diazatricyclo[13.3.1.0^2,7]nonadeca-1(19),2(7),3,5,15,17-hexaene-4-carboxylic acid]		2.45 nM
COC(=O)Nc1ccc2c(c1)NC(=O)[C@H](C)CCC[C@H](N1CCC(c3ccnc(Cl)c3)=CC1=O)c1cc-2ccn1 [Example 156, Methyl N-[(10R,14S)-14-[4-(2-chloropyridin-4-yl)-6-oxo-1,2,3,6-tetrahydropyridin-1-yl]-10-methyl-9-oxo-8,16-diazatricyclo[13.3.1.0^2,7]nonadeca-1(19),2,4,6,15,17-hexaen-5-yl]carbamate, 2 TFA salt]		> 446 nM
COC(=O)c1ccc2c(c1)-c1cccc(c1)[C@@H](N1CCC(c3c(C(C)=O)ccc(Cl)c3F)=CC1=O)CCC[C@@H](C)C(=O)N2 [Example 172, Methyl (10R,14S)-14-[4-(6-acetyl-3-chloro-2-fluorophenyl)-6-oxo-1,2,3,6-tetrahydropyridin-1-yl]-10-methyl-9-oxo-8-azatricyclo[13.3.1.0^2,7]nonadeca-1(18),2,4,6,15(19),16-hexaene-4-carboxylate]		140 nM
COC(=O)Nc1ccc2c(c1)NC(=O)[C@H](C)CCC[C@H](N1CCC(c3c(C#N)ccc(Cl)c3F)=CC1=O)c1cccc-2c1 [Example 173, Methyl N-[(10R,14S)-14-[4-(3-chloro-6-cyano-2-fluorophenyl)-6-oxo-1,2,3,6-tetrahydropyridin-1-yl]-10-methyl-9-oxo-8-azatricyclo[13.3.1.0^2,7]nonadeca-1(18),2,4,6,15(19),16-hexaen-5-yl]carbamate]		0.42 nM
C#Cc1ccc(Cl)c(F)c1C1=CC(=O)N([C@H]2CCC[C@@H](C)C(=O)Nc3cc(NC(=O)OC)ccc3-c3ccnc2c3)CC1 [Example 181, Methyl N-[(10R,14S)-14-[4-(3-chloro-6-ethynyl-2-fluorophenyl)-6-oxo-1,2,3,6-tetrahydropyridin-1-yl]-10-methyl-9-oxo-8,16-diazatricyclo[13.3.1.0^2,7]nonadeca-1(19),2(7),3,5,15,17-hexaen-5-yl]carbamate]		0.1 nM
C[C@@H]1CCC[C@H](N2CCC(c3cc(Cl)ccc3-n3ccnn3)=CC2=O)c2cc(ccn2)-c2ccccc2NC1=O [Example 189, (10R,14S)-14-{4-[5-chloro-2-(1H-1,2,3-triazol-1-yl)phenyl]-6-oxo-1,2,3,6-tetrahydropyridin-1-yl}-10-methyl-8,16-diazatricyclo[13.3.1.0^2,7]nonadeca-1(19),2(7),3,5,15,17-hexaen-9-one]		2.28 nM
C[C@@H]1CCC[C@H](N2CCC(c3c(F)ccc(Cl)c3F)=CC2=O)c2cc(ccn2)-c2ccc(NC(=N)N)cc2NC1=O [Example 192, 1-[(10R,14S)-14-[4-(3-chloro-2,6-difluorophenyl)-6-oxo-1,2,3,6-tetrahydropyridin-1-yl]-10-methyl-9-oxo-8,16-diazatricyclo[13.3.1.0^2,7]nonadeca-1(19),2,4,6,15,17-hexaen-5-yl]guanidine, 2 TFA salt]		91 nM
COC(=O)c1cc2c(cc1N)NC(=O)[C@H](C)CCC[C@H](N1CCC(c3c(F)ccc(Cl)c3F)=CC1=O)c1cc-2ccn1 [Example 197, Methyl (10R,14S)-5-amino-14-[4-(3-chloro-2,6-difluorophenyl)-6-oxo-1,2,3,6-tetrahydropyridin-1-yl]-10-methyl-9-oxo-8,16-diazatricyclo[13.3.1.0^2,7]nonadeca-1(19),2,4,6,15,17-hexaene-4-carboxylate, 2 TFA salt]		4.54 nM
C[C@@H]1CCC[C@H](N2CCC(c3c(F)ccc(Cl)c3F)=CC2=O)c2cc(ccn2)-n2nc(C(=O)O)cc2NC1=O [Example 222, (9R,13S)-13-[4-(3-chloro-2,6-difluorophenyl)-6-oxo-1,2,3,6-tetrahydropyridin-1-yl]-9-methyl-8-oxo-2,3,7,15-tetraazatricyclo[12.3.1.0^2,6]octadeca-1(18),3,5,14,16-pentaene-4-carboxylic acid]		88.4 nM
C[C@@H]1CCC[C@H](N2CCC(c3c(F)ccc(Cl)c3F)=CC2=O)c2cc(ccn2)-n2nc(C3CC3)cc2NC1=O [Example 223, (9R,13S)-13-[4-(3-chloro-2,6-difluorophenyl)-6-oxo-1,2,3,6-tetrahydropyridin-1-yl]-4-cyclopropyl-9-methyl-2,3,7,15-tetraazatricyclo[12.3.1.0^2,6]octadeca-1(18),3,5,14,16-pentaen-8-one]		302 nM
COC(=O)Nc1cc2n(n1)-c1ccnc(c1)[C@@H](N1CCC(c3c(F)ccc(Cl)c3F)=CC1=O)CCC[C@@H](C)C(=O)N2 [Example 224, Methyl N-[(9R,13S)-13-[4-(3-chloro-2,6-difluorophenyl)-6-oxo-1,2,3,6-tetrahydropyridin-1-yl]-9-methyl-8-oxo-2,3,7,15-tetraazatricyclo[12.3.1.0^2,6]octadeca-1(18),3,5,14,16-pentaen-4-yl]carbamate]		298 nM
